Columns and labels:
[1] = cited from earlier work
HIV aspartyl protease = settings: cited from earlier work
[2] = Physical stability under drying (vacuum) and 90% RH, PXRD
Procedure: The said formic acid solvate of the present invention is characterized by their X-ray powder diffraction pattern. Thus, the X-ray diffraction patterns of said polymorphs of the invention were measured on Bruker AXS D8 Discover powder X-ray diffractometer equipped with a goniometer of θ/2θ configuration, Variol monochromator and Lynx-Eye detector. The Cu-anode X-ray tube was operated at 40 kV and 30 mA. The experiments were conducted over the 2θ range of 2.0°-50.0°, 0.030° step size and 25 seconds step time.
In yet another embodiment, the physical stability of Fosamprenavir calcium Form A was determined by storing 1.0 g of sample at 50° C. and 80° C. under vacuum and at 90% relative humidity (RH). The samples are tested by PXRD after 15 hours and 72 hours. […] Transformation kinetics of Form A was studied by suspending 1 g of Form A in appropriate solvents at 25-30° C. for 15 hours. The solid samples were characterized by PXRD.

[3] = Transformation kinetics: slurry in solvents, PXRD; type: physicochemical; settings: 25-30° C., 15 h
Description: The solid samples were characterized by PXRD.

[4] = Storage stability of Form A: HPLC purity
Procedure: In yet another embodiment, physical and chemical stability of Fosamprenavir calcium Form A was determined by storing the samples at 40° C./75% relative humidity (RH), at 25° C./60% RH and at 5° C. for 6 months. The material was analyzed by PXRD, water content by Karl Fischer and HPLC for final purity.

[5] = Storage stability of Form A: polymorph by PXRD; type: physicochemical
[6] = Storage stability of Form A: water content by Karl Fischer; type: physicochemical
Procedure: Water content was determined on Metrohm karl-Fischer titrator (Model: 794 Basic Titrino) using pyridine free single solution (Merck, Mumbai) with sample mass between 450-550 mg.

[7] = stored for 6 months at the stress conditions of table 1

Structure (SMILES): CC(C)CN(C[C@@H](OP(=O)([O-])[O-])[C@H](Cc1ccccc1)NC(=O)O[C@H]1CCOC1)S(=O)(=O)c1ccc(N)cc1.[Ca+2] [Fosamprenavir Calcium, Calcium (3S) tetrahydro-3-furanyl (1S,2R)-3-[[(4-aminophenyl)sulfonyl](isobutyl)amino]-1-benzyl-2-(phosphonooxy)propylcarbamate]
- Solubility compared to amprenavir ([1]; pH range of the gastro-intestinal tract): increased solubility
- HIV aspartyl protease inhibitory activity (HIV aspartyl protease): has HIV aspartyl protease inhibitory activity

Structure (SMILES): CC(C)CN(C[C@@H](OP(=O)([O-])[O-])[C@H](Cc1ccccc1)NC(=O)O[C@H]1CCOC1)S(=O)(=O)c1ccc(N)cc1.[Ca+2] [Fosamprenavir calcium Form A, Calcium (3S) tetrahydro-3-furanyl (1S,2R)-3-[[(4-aminophenyl)sulfonyl](isobutyl)amino]-1-benzyl-2-(phosphonooxy)propylcarbamate]
- Change in polymorph ([2]; 50° C. and 80° C. under vacuum and 90% RH, after 15 hours and 72 hours): no change in polymorph
- Result (polymorph by PXRD) ([2]; 90% RH, 15 h): Form A
- Result (polymorph by PXRD) ([2]; 90% RH, 72 h): Form A
- Result (polymorph by PXRD) ([2]; Drying at 50° C. under vacuum, 15 h): Form A
- Result (polymorph by PXRD) ([2]; Drying at 50° C. under vacuum, 72 h): Form A
- Result (polymorph by PXRD) ([2]; Drying at 80° C. under vacuum, 15 h): Form A
- Result (polymorph by PXRD) ([2]; Drying at 80° C. under vacuum, 72 h): Form A
- Physical stability ([2]; different stress conditions (Table 2)): physically stable
- Result (polymorph by PXRD) ([3]; Slurry in IPE): Form A
- Result (polymorph by PXRD) ([3]; Slurry in acetone): Form A
- Result (polymorph by PXRD) ([3]; Slurry in ethyl acetate): Form A
- Result (polymorph by PXRD) ([3]; Slurry in n-Heptane): Form A
- HPLC purity (%) ([4]; at 5° C., 1st Month): 99.85%
- HPLC purity (%) ([4]; at 5° C., 2nd Month): 99.86%
- HPLC purity (%) ([4]; at 5° C., 3rd Month): 99.86%
- HPLC purity (%) ([4]; at 5° C., 6th Month): 99.86%
- HPLC purity (%) ([4]; at 5° C., 15 days): 99.85%
- HPLC purity (%) ([4]; at 5° C., Initial): 99.85%
- HPLC purity (%) ([4]; at 25° C./60% RH, 1st Month): 99.85%
- HPLC purity (%) ([4]; at 25° C./60% RH, 2nd Month): 99.86%
- HPLC purity (%) ([4]; at 25° C./60% RH, 3rd Month): 99.87%
- HPLC purity (%) ([4]; at 25° C./60% RH, 6th Month): 99.85%
- HPLC purity (%) ([4]; at 25° C./60% RH, 15 days): 99.85%
- HPLC purity (%) ([4]; at 25° C./60% RH, Initial): 99.85%
- HPLC purity (%) ([4]; at 40° C./75% RH, 1st Month): 99.85%
- HPLC purity (%) ([4]; at 40° C./75% RH, 2nd Month): 99.85%
- HPLC purity (%) ([4]; at 40° C./75% RH, 3rd Month): 99.86%
- HPLC purity (%) ([4]; at 40° C./75% RH, 6th Month): 99.86%
- HPLC purity (%) ([4]; at 40° C./75% RH, 15 days): 99.84%
- HPLC purity (%) ([4]; at 40° C./75% RH, Initial): 99.85%
- Degradation on storage [4, 7]: no significant degradation
- PXRD ([5]; at 5° C., 1st Month): Form A
- PXRD ([5]; at 5° C., 2nd Month): Form A
- PXRD ([5]; at 5° C., 3rd Month): Form A
- PXRD ([5]; at 5° C., 6th Month): Form A
- PXRD ([5]; at 5° C., 15 days): Form A
- PXRD ([5]; at 5° C., Initial): Form A
- PXRD ([5]; at 25° C./60% RH, 1st Month): Form A
- PXRD ([5]; at 25° C./60% RH, 2nd Month): Form A
- PXRD ([5]; at 25° C./60% RH, 3rd Month): Form A
- PXRD ([5]; at 25° C./60% RH, 6th Month): Form A
- PXRD ([5]; at 25° C./60% RH, 15 days): Form A
- PXRD ([5]; at 25° C./60% RH, Initial): Form A
- PXRD ([5]; at 40° C./75% RH, 1st Month): Form A
- PXRD ([5]; at 40° C./75% RH, 2nd Month): Form A
- PXRD ([5]; at 40° C./75% RH, 3rd Month): Form A
- PXRD ([5]; at 40° C./75% RH, 6th Month): Form A
- PXRD ([5]; at 40° C./75% RH, 15 days): Form A
- PXRD ([5]; at 40° C./75% RH, Initial): Form A
- Change in PXRD pattern on storage [5, 7]: no change in PXRD pattern
- Water content (% w/w) ([6]; at 5° C., 1st Month): 3.5 % w/w
- Water content (% w/w) ([6]; at 5° C., 2nd Month): 4.4 % w/w
- Water content (% w/w) ([6]; at 5° C., 3rd Month): 4.0 % w/w
- Water content (% w/w) ([6]; at 5° C., 6th Month): 3.5 % w/w
- Water content (% w/w) ([6]; at 5° C., 15 days): 3.6 % w/w
- Water content (% w/w) ([6]; at 5° C., Initial): 4.2 % w/w
- Water content (% w/w) ([6]; at 25° C./60% RH, 1st Month): 3.6 % w/w
- Water content (% w/w) ([6]; at 25° C./60% RH, 2nd Month): 3.7 % w/w
- Water content (% w/w) ([6]; at 25° C./60% RH, 3rd Month): 3.9 % w/w
- Water content (% w/w) ([6]; at 25° C./60% RH, 6th Month): 3.5 % w/w
- Water content (% w/w) ([6]; at 25° C./60% RH, 15 days): 3.7 % w/w
- Water content (% w/w) ([6]; at 25° C./60% RH, Initial): 4.2 % w/w
- Water content (% w/w) ([6]; at 40° C./75% RH, 1st Month): 3.5 % w/w
- Water content (% w/w) ([6]; at 40° C./75% RH, 2nd Month): 3.9 % w/w
- Water content (% w/w) ([6]; at 40° C./75% RH, 3rd Month): 3.8 % w/w
- Water content (% w/w) ([6]; at 40° C./75% RH, 6th Month): 3.0 % w/w
- Water content (% w/w) ([6]; at 40° C./75% RH, 15 days): 3.5 % w/w
- Water content (% w/w) ([6]; at 40° C./75% RH, Initial): 4.2 % w/w
- Change in moisture content on storage [6, 7]: no substantial increase in moisture content

Structure (SMILES): CC(C)CN(C[C@@H](O)[C@H](Cc1ccccc1)NC(=O)O[C@H]1CCOC1)S(=O)(=O)c1ccc(N)cc1 (relative stereo) [Amprenavir, [3S-[3R*(1R*,2S*)]]-[3-[[(4-aminophenyl)sulfonyl](2-methyl-propyl)amino]-2-hydroxy-1-phenylmethyl)propyl]-tetrahydro-3-furanyl ester]
- Solubility [1]: poor solubility

From patent US8993786B2, “Crystalline fosamprenavir calcium and process for the preparation thereof” (Mylan Laboratories Ltd., priority 2011, dated 2015)
